# Source: patent US6835382B2, “Ii peptide therapeutics to enhance antigen presentation” (University of Massachusetts, priority 1996, dated 2004)
# Non-standard residues stand in square brackets, D forms with d. Orn = NCCC[C@H](N)C(=O)O
# What was measured:
# [1] = system: murine E^k MHC class II allele; test: simultaneous assay, E^k allele (CH27 APC, TPc9.1 T hybridoma, THMCC82-103 or PGCC81-104); assay type: cell-based; details: for Times Baseline Response, Ek: Table 3, values reduced relative to E^d by a factor of 10
# Procedure: (§1) Examples 1-4 (Tables 1-18) will be briefly considered in order to establish the concept of tolerance discussed above. These examples describe experimental results observed in the so-called “simultaneous” assay. In the simultaneous assay four principle components are cultured together for a 24 hour period. The components of this culture, which are added simultaneously, are: (a) an antigenic peptide characterized by the ability to bind specifically into the antigenic peptide binding groove of an MHC class II molecule, (b) mitomycin C-treated, MHC class II-positive antigen presenting cells (APC) bearing the MHC class II allele required for binding of the specific antigenic peptide, and presentation of the specific antigenic peptide to the antigenic peptide-specific T cell hybridoma, (c) an effector compound of the present invention, and (d) an MHC class II allele-restricted T cell hybridoma specific for the antigenic peptide and the MHC class II allele restricting its presentation. Following incubation of this primary culture, an aliquot of its supernatant is transferred into a second culture well for incubation with an interleukin-dependent lymphoblastoid cell line. The degree of stimulation of that second, indicator cell by the interleukins which had been released from the activated T cell hybridoma in the primary culture is measured by quantitating tritiated thymidine deoxyribose {[^3H]TdR} uptake into the DNA of the HT-2 indicator cells of that second culture.
# (§2) In the “simultaneous assay” the four components of the assay are cultured together for a 24 h period. The components of this primary culture, added at the same time or simultaneously, are: (a) the antigenic peptide, (b) mitomycin C-treated, MHC class II-positive antigen presenting cells (APC) with the MHC class II allele required for binding of the specific antigenic peptide and its presentation to the antigenic peptide-specific T cell hybridoma, (c) an AE101 series effector peptide, and (d) MHC class II allele-restricted T cell hybridoma specific for the antigenic peptide and the MHC class II allele restricting its presentation. At the end of the incubation of this primary culture, an aliquot of its supernatant is transferred into a second culture well for incubation with an interleukin-dependent lymphoblastoid cell line. The degree of stimulation of that second, indicator cell by the interleukins which had been released from the activated T cell hybridoma in the primary culture is measured by quantitating tritiated thymidine deoxyribose {[^3H]TdR} uptake into the DNA of the HT-2 indicator cells of that second culture.
# (§3) For these various assays, the following antigenic peptides were used: HEL11-25, hen egg lysozyme 11-25, AMKRHGLDNYRGYSL(A^d) (SEQ ID NO:5); HEL46-61, hen egg lysozyme 46-61, NTDGSTDYGILQINSR(Ak) (SEQ ID NO:6); HEL106-116, hen egg lysozyme 106-116, NAWVAWRNRCK (E^d) (SEQ ID NO:7); PGCC81-104, pigeon cytochrome c 81-104, […] (Ek) (SEQ ID NO:8), and THMCC82-103, tobacco hornworm moth cytochrome c 82-103, […] (Ek) (SEQ ID NO:9). AE101 series peptides were obtained from commercial sources. In general, the purity and composition of each peptide was confirmed by HPLC separation and mass spectrometry. The native protein antigens were HEL, hen egg lysozyme, and PGCC, pigeon cytochrome C. They were obtained from commercial sources.
# (§4) For the experiments of these Examples, several T cell hybridomas, which are specific for certain antigenic peptides, were used. The TPc9.1 T hybridoma is specific for pigeon cytochrome C 81-104 peptide presented on the murine class II MHC allele E^k. The TPc9.1 hybridoma responds heteroclitically to tobacco hornworm moth cytochrome c 82-103 on E^k. The 3A9 T hybridoma is specific for hen egg lysozyme 46-61 on A^k. The 9.30.B2 hybridoma is specific for hen egg lysozyme 11-25 on A^d, and the G28.C9 hybridoma is specific for hen egg lysozyme 106-116 on E^d. […]
# [2] = molecular target: T1, murine E^d MHC class II allele (Mus musculus, UniProt P01904+P01915); test: simultaneous assay, E^d allele (A20 APC, G28.C9 T hybridoma, HEL106-116; HT-2 [3H]TdR readout); assay type: cell-based; parameters: The A20 and CH27 B cell lymphoma lines express H-2^d and H-2^k alleles, respectively; endogenous in cells; host or cells: A20 B cell lymphoma (mitomycin C-treated or paraformaldehyde-fixed); details: for Times Baseline Response, Ed: Table 3
# T1 sequence (P01904 26-255): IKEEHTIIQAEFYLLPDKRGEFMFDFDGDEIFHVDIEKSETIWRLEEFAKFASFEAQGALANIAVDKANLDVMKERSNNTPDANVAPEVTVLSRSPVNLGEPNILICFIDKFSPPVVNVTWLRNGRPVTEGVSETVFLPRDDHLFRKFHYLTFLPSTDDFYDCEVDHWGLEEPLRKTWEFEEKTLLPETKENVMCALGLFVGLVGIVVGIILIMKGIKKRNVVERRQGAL
# T1 sequence (P01915 27-264 limits assumed): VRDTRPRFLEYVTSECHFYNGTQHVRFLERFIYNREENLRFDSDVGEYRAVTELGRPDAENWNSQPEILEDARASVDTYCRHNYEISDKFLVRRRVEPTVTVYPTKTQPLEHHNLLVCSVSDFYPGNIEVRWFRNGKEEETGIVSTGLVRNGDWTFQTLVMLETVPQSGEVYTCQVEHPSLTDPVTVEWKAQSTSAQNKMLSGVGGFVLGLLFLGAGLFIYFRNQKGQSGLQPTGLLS
# Procedure: as §1, §2, §3, §4
# [3] = Table 5, AE peptide 64 μM, supernatant 1:4, normalized to E^d by a factor of 10
# [4] = Table 5, AE peptide 64 μM, supernatant 1:4
# [5] = AE peptide 64 μM, supernatant 1:4
# [6] = Table 9, AE peptide 64 μM, supernatant 1:4, normalized by a factor of 5
# [7] = Table 9, AE peptide 64 μM, supernatant 1:4
# [8] = Table 6, AE peptide 64 μM, supernatant 1:4, reduced by a factor of 5
# [9] = Table 6, AE peptide 64 μM, supernatant 1:4
substance,measurement,setting,value
Ac-LR Y KLPK-NH2 [AE205],"Times Baseline Response, E^k",[1]; [3],27.4
same,"Times Baseline Response, E^d",[2]; [4],13.9
Ac-[Orn]RMKLPK-NH2 [AE180],"Times Baseline Response, Ek",[1]; [5],10.8
same,"Times Baseline Response, Ed",[2]; [5],12.6
Ac-LRMKLP L-NH2 [AE251],"Times Baseline Response, E^k",[1]; [6],18.6
same,"Times Baseline Response, E^d",[2]; [7],11.9
Ac-LR Q KLPK-NH2 [AE203],"Times Baseline Response, E^k",[1]; [3],20.5
same,"Times Baseline Response, E^d",[2]; [4],14.1
Ac-LRM Y LPK-NH2 [AE219],"Times Baseline Response, E^k",[1]; [8],8.8
same,"Times Baseline Response, E^d",[2]; [9],7.1
Ac-LRM H LPK-NH2 [AE213],"Times Baseline Response, E^k",[1]; [8],5.7
same,"Times Baseline Response, E^d",[2]; [9],6.1
Ac-LRMKLP H-NH2 [AE243],"Times Baseline Response, E^k",[1]; [6],14.5
same,"Times Baseline Response, E^d",[2]; [7],7.2
Ac-LRM E LPK-NH2 [AE215],"Times Baseline Response, E^k",[1]; [8],0.4
same,"Times Baseline Response, E^d",[2]; [9],0.7
Ac-LR D KLPK-NH2 [AE200],"Times Baseline Response, E^k",[1]; [3],3.9
same,"Times Baseline Response, E^d",[2]; [4],8.3
Ac-Q RMKLPK-NH2 [AE188],"Times Baseline Response, Ek",[1]; [5],7.7
same,"Times Baseline Response, Ed",[2]; [5],8.8
Ac-LR H KLPK-NH2 [AE198],"Times Baseline Response, E^k",[1]; [3],18.7
same,"Times Baseline Response, E^d",[2]; [4],16.1
Ac-lrmklpk-NH2 [AE170],"Times Baseline Response, E^k","[1]; Table 12, AE peptide 1 μM (fourth value), supernatant 1:4",1.7
same,"Times Baseline Response, E^k","[1]; Table 12, AE peptide 4 μM (third value), supernatant 1:4",2.1
same,"Times Baseline Response, E^k","[1]; Table 12, AE peptide 16 μM (second value), supernatant 1:4",2.4
same,"Times Baseline Response, E^k","[1]; Table 12, AE peptide 64 μM (first value), supernatant 1:4",2.8
same,"Times Baseline Response, E^d","[2]; Table 12, AE peptide 1 μM (fourth value), supernatant 1:2",1.3
same,"Times Baseline Response, E^d","[2]; Table 12, AE peptide 4 μM (third value), supernatant 1:2",1.3
same,"Times Baseline Response, E^d","[2]; Table 12, AE peptide 16 μM (second value), supernatant 1:2",1.2
same,"Times Baseline Response, E^d","[2]; Table 12, AE peptide 64 μM (first value), supernatant 1:2",1.1
same,"activity in simultaneous assay on E^d and E^k, in words",[2]; Tables 12 and 18,inactive
Ac-HArg RMKLPK-NH2 [AE182],"Times Baseline Response, Ek",[1]; [5],26.5
same,"Times Baseline Response, Ed",[2]; [5],18.8
Ac-N RMKLPK-NH2 [AE187],"Times Baseline Response, Ek",[1]; [5],9.5
same,"Times Baseline Response, Ed",[2]; [5],6.3
Ac-LRM D LPK-NH2 [AE214],"Times Baseline Response, E^k",[1]; [8],0.4
same,"Times Baseline Response, E^d",[2]; [9],0.8
Ac-YRMKLPASAK-NH2 [AE126],"Times Baseline Response, E^k","[1]; Table 10, AE peptide 64 μM, supernatant 1:2 (first value)",53.4
same,"Times Baseline Response, E^k","[1]; Table 10, AE peptide 64 μM, supernatant 1:4 (second value)",56.4
same,"Times Baseline Response, E^d","[2]; Table 10, AE peptide 16 μM (second value), supernatant 1:2",6.8
same,"Times Baseline Response, E^d","[2]; Table 10, AE peptide 64 μM (first value), supernatant 1:2",18.2
Ac-K RMKLPK-NH2 [AE184],"Times Baseline Response, Ek",[1]; [5],11.8
same,"Times Baseline Response, Ed",[2]; [5],14.1
Ac-D RMKLPK-NH2 [AE185],"Times Baseline Response, Ek",[1]; [5],0.9
same,"Times Baseline Response, Ed",[2]; [5],1.2
Ac-M RMKLPK-NH2 [AE190],"Times Baseline Response, Ek",[1]; [5],15.2
same,"Times Baseline Response, Ed",[2]; [5],9.8
Ac-LRM F LPK-NH2 [AE218],"Times Baseline Response, E^k",[1]; [8],9.0
same,"Times Baseline Response, E^d",[2]; [9],3.1
